# Reference: the OligoGym collection
# “And” between values parts separate entries of the source, which are not always exact repeats. Equal values may be shown once. After the bases stand the sugars from the 5' end (letter, count) and the backbone: PS all phosphorothioate, else s phosphorothioate and o phosphodiester by linkage. Methylation of C is not given here. e = 2'-O-(2-methoxyethyl) (MOE); k = constrained ethyl (cEt); d = 2'-deoxy (DNA)
# Target: IRF4
# Details: ASO
Sequence,"target mRNA inhibition (SK-MEL-28, 4 µM)","target mRNA inhibition (MM.1R, 1 µM)",other results
"AGAAGCACTGGCATTG (sugars k3 d10 k3, PS)",45%,–,–
"AAGCTTAGTTATCTGG (sugars k3 d10 k3, PS)",–,35% and 13%,"target mRNA inhibition (MM.1R, 0.0625 µM): -13%; target mRNA inhibition (MM.1R, 0.25 µM): -10%; target mRNA inhibition (MM.1R, 4 µM): 45%"
"TCAAACCCTACTGGGT (sugars k3 d10 k3, PS)",8%,–,–
"AGTATGAGAAACGGCC (sugars k3 d9 k3 e1, PS)",–,7%,–
"CTCTATAGTGTTCCAG (sugars k2 d9 e3 k2, PS)",–,48%,–
"CCCAAGTGAGGTCACC (sugars k3 d10 k3, PS)",20%,–,–
"TCACAGTGATCATCAA (sugars k3 d10 k3, PS)",43%,–,–
"TACAAAAACTTGGGTC (sugars k3 d10 k3, PS)",9%,–,–
"TCTCAAGGAGATCCAC (sugars k3 d10 k3, PS)",1%,–,–
"GCCTGGGAGTCCCCGG (sugars k3 d10 k3, PS)",18%,–,–
"TACGCTTATTTTTCCA (sugars k3 d10 k3, PS)",–,51% and 56%,"target mRNA inhibition (MM.1R, 0.0625 µM): 1% and 12%; target mRNA inhibition (MM.1R, 0.25 µM): 29% and 44%; target mRNA inhibition (MM.1R, 4 µM): 65% and 77%"
"TCTATAGTGTTCCAGG (sugars kdddddddddkekeke, PS)",–,12%,–
"AACAGATAACGAGGTG (sugars k3 d10 k3, PS)",-4%,–,–
"CTCTTGTGAGGCAAAG (sugars k3 d10 k3, PS)",48%,–,–
"CAGCACTCAGATTCTA (sugars k3 d10 k3, PS)",12%,–,–
"GCCACTGGCGGAGCTT (sugars k3 d10 k3, PS)",23%,–,–
"TAATCCACAATCAGCA (sugars k3 d10 k3, PS)",–,-27%,–
"TTTTGGCTCCCTCAGG (sugars k3 d10 k3, PS)",–,-3%,–
"CTGAGTTGTACAGGAC (sugars k3 d10 k3, PS)",–,55% and 52%,"target mRNA inhibition (MM.1R, 0.0625 µM): 4%; target mRNA inhibition (MM.1R, 0.25 µM): 22%; target mRNA inhibition (MM.1R, 4 µM): 81%"
"ACTCAGCAAGTGTCTT (sugars k3 d10 k3, PS)",47%,–,–
"TTATGGACCACGCAGC (sugars k3 d10 k3, PS)",31%,–,–
"CATAGAGCCAGAGCAG (sugars k3 d10 k3, PS)",60%,–,–
"AAGCAGTGATGTCAGG (sugars k3 d10 k3, PS)",–,66% and 65%,"target mRNA inhibition (MM.1R, 0.0625 µM): 8%; target mRNA inhibition (MM.1R, 0.25 µM): 25%; target mRNA inhibition (MM.1R, 4 µM): 75%"
"AACAATACTGTAAGGG (sugars k3 d10 k3, PS)",51%,–,–
"AGCTTGATAAAGGCTG (sugars kkdddddddddkdkdk, PS)",–,-3%,–

Sequence,"target mRNA inhibition (SK-MEL-28, 4 µM)","target mRNA inhibition (MM.1R, 1 µM)",other results
"GTAGTATGAGAAACGG (sugars kkdddddddddkdkdk, PS)",–,32%,–
"TGTAAGTGATAGGTAT (sugars k3 d10 k3, PS)",53%,–,–
"TCTAAGGCAAGCTGAA (sugars k3 d10 k3, PS)",21%,–,–
"ACCAATGGCAGCACCG (sugars k3 d10 k3, PS)",61%,–,–
"AGGAAGCACTGGCATT (sugars k3 d10 k3, PS)",59%,–,–
"AATAAGATCCCACGAA (sugars k3 d10 k3, PS)",15%,–,–
"TGATGGAGAAACGAGC (sugars k3 d10 k3, PS)",–,-2%,–
"AAGCATAGAGTCACCT (sugars k3 d10 k3, PS)",36%,–,–
"GTGGAACTCTAGTGTC (sugars k3 d10 k3, PS)",12%,–,–
"ACACATTTGAGAGCTA (sugars k3 d10 k3, PS)",69%,–,–
"AGACAAGTGCCCATCC (sugars k3 d10 k3, PS)",–,1%,–
"AGTGAGAAAACCCCCC (sugars k3 d10 k3, PS)",–,8%,–
"CTGGCATTGAGACGGG (sugars k3 d10 k3, PS)",61%,–,–
"GCCCCGAATAGGACCC (sugars k3 d10 k3, PS)",21%,–,–
"ACTAAATTCTAGTTTG (sugars k3 d10 k3, PS)",0%,–,–
"TCTTTATGCGAAGAAT (sugars k3 d10 k3, PS)",42%,–,–
"AGTATGAGAAACGGCC (sugars kkkdddddddddkeke, PS)",–,16%,–
"AAGTCTACAGCCCCAG (sugars k3 d10 k3, PS)",–,-5%,–
"CTGCATGAGGGTGACA (sugars k3 d10 k3, PS)",19%,–,–
"GAACACCATGCCCAAC (sugars k3 d10 k3, PS)",7%,–,–
"TTATTAAGTCAATCAC (sugars k3 d10 k3, PS)",-1%,–,–
"TTACTAACTGGCTTCC (sugars k3 d10 k3, PS)",49%,–,–
"CAACCATTTTCACAAG (sugars k3 d10 k3, PS)",17%,–,–
"GTGCTTGCCAAGCCTA (sugars k3 d10 k3, PS)",–,27% and 36%,–
"AGTCTAGCTGGGTTTT (sugars k3 d10 k3, PS)",63%,–,–
